Measured values as given in article PMC7698842, “Lanostane Triterpenoid Metabolites from a Penares sp. Marine Sponge Protect Neuro-2a Cells against Paraquat Neurotoxicity” (Molecules, 2020).

Legend:
[1] = DPPH radical scavenging assay (cell-free); settings: 30 min, MeOH
Procedure: The 2,2-diphenyl-1-picryl-hydrazyl-hydrate (DPPH) radical scavenging activity was tested as described previously. The compounds were dissolved in MeOH, and the solutions (120 µL) were dispensed into wells of a 96-well microplate. The DPPH (Sigma-Aldrich, Steinheim, Germany) was dissolved in MeOH at a concentration of 7.5 × 10^−3 M and the solution (30 µL) was added to each well. The concentrations of tested compounds in the mixtures were 10 and 100 µM. Ascorbic acid was used as a positive control. The mixtures were shaken and left for 30 min. The absorbance of the resulting solutions was measured at λ = 520 nm with a MultiscanFC plate reader (Thermo Scientific, Waltham, MA, USA). The concentration scavenging 50% of the DPPH radical (EC50) was calculated for each compound.

[2] = tested on: mitochondrial membrane potential in PQ-treated Neuro-2a cells; assay: Mitochondrial membrane potential detection (TMRM) in PQ-treated Neuro-2a cells; assay type: cell-based, mouse
Procedure: The cells (1 × 10^4 cells/well of a 96-well plate) were incubated with compound solutions (1 and 10 µM) during 1 h. Then, PQ was added to cell suspension to a resulting concentration of 500 µM for incubation during 1 h. Cells incubated without PQ and compounds and with PQ alone were used as positive and negative controls, respectively. The tetramethylrhodamine methyl (TMRM) (Sigma-Aldrich, St. Louis, MO, USA) solution at 500 nM was added in each well and cells were incubated for 30 min at 37 °C. The intensity of fluorescence was measured with a PHERAstar FS plate reader (BMG Labtech, Ortenberg, Germany) at λex = 540 nm and λem = 590 nm. The data were processed by MARS Data Analysis v. 3.01R2 (BMG Labtech, Ortenberg, Germany). The results were presented as percent of positive control data.

[3] = tested on: PQ-treated Neuro-2a cells; assay: Propidium iodide straining of PQ-treated Neuro-2a cells (membrane permeability); assay type: cell-based, mouse; settings: 24 h; for decrease of fluorescence of PI-straining cells: compound 10 μM pre-incubation, PQ-treated cells
Procedure: The cells (1 × 10^4 cells/well) were seeded in black 96-well plates before testing. After incubation of the cells with compounds and PQ during 24 h, PI solution (10 μg/mL) was added to each well and the plate was incubated in the dark at 37 °C for 10 min. Cells were washed with phosphate buffer saline (PBS) (BioloT, St.Peterburg, Russia) and fluorescence was measured with a Fluoroskan Ascent plate reader (Thermo Labsystems, Helsinki, Finland) at […]. All manipulations with fluorescent probes were carried out in a darkened room. The results were presented as percent of positive control data.

[4] = tested on: Hsp70 level in Neuro-2a cells; assay: Hsp70 level analysis by Western blot in Neuro-2a cells; assay type: cell-based, mouse; settings: for increase of Hsp70 level in PQ-treated cells: compound 10 µM 1 h, then PQ 500 µM 24 h
Procedure: The Hsp70 expression was detected by Western blot analysis. Cell suspensions (1.6 × 10^5 cells/well of a 6-well plate) were seeded and treated with studied compounds at a concentration of 10 µM for 1 h. After that, PQ (500 µM) was added and cells were incubated during 24 h. Cells incubated without PQ and compounds and with PQ alone were used as positive and negative controls, respectively. Cells were washed by cold PBS (BioloT, Russia) twice and lysed by radioimmunoprecipitation assay (RIPA) buffer (BioloT, St. Peterburg, Russia). The amount of proteins was measured by the Bradford method and equal samples (25 µg) were prepared using sample buffer. Proteins were separated with sodium dodecyl sulphate (SDS) electrophoresis in 10% polyacrylamide gel. The electrophoretically separated proteins were transferred onto the polyvinylidene difluoride (PVDF) membrane Whatman (Sigma-Aldrich, St. Louis, MO, USA) using a semi-dry transfer apparatus (Helicon, Moscow, Russia). […] The peroxidase reaction was visualized by an enhanced chemiluminescence (ECL) kit according to the instructions of the manufacturer (Sigma-Aldrich, St. Louis, MO, USA) using the VersaDoc Imaging System (Bio-Rad, Hercules, CA, USA).

[5] = tested on: ROS level in PQ-treated Neuro-2a cells; assay: ROS level analysis in PQ-treated Neuro-2a cells (H2DCFDA); assay type: cell-based, mouse; settings: for concentrations at which ROS content in PQ-treated cells was reduced: tested at 1 and 10 μM
Procedure: The cells (1 × 10^4 cells/well of a 96-well plate) were incubated with compound solutions (1 and 10 µM) during 1 h. Then, PQ was added to cell suspension to a resulting concentration of 500 µM for incubation during 1 h. Cells incubated without PQ and compounds and with PQ alone were used as positive and negative controls, respectively. The 20 µL of 2,7-dichlorodihydrofluorescein diacetate solution (H2DCFDA, Molecular Probes, Eugene, OR, USA) was added to each well (10 µM, final concentration) and the plate was incubated for an additional 10 min at 37 °C. The intensity of dichlorofluorescin fluorescence was measured with a PHERAstar FS plate reader (BMG Labtech, Ortenberg, Germany) at λex = 485 nm and λem = 518 nm. The data were processed by MARS Data Analysis v. 3.01R2 (BMG Labtech, Ortenberg, Germany). The results were presented as percent of positive control data.

[6] = tested on: PQ-treated Neuro-2a cells; assay: Neurite outgrowth estimation in PQ-treated Neuro-2a cells; assay type: cell-based, mouse
Procedure: Neurite outgrowth was studied as described by Li et al.. Neuro-2a cells were seeded in 6-well plates (1.6 × 10^5 cells/well) in DMEM medium containing 10% fetal bovine serum (Biolot, St. Peterburg, Russia) and 1% penicillin/streptomycin (Invitrogen, Carlsbad, CA, USA). The next day, this growth media was changed with serum-free DMEM media containing 1% penicillin/streptomycin, and cells were treated with studied compounds at a concentration of 10 µM for 1 h. After that, PQ (500 µM) was added and cells were incubated during 24 h. Cells incubated without PQ and compounds and with PQ alone were used as positive and negative controls, respectively.
For each well, approximately 10 images were acquired randomly by scanning the wells from left to right and top to bottom using the AxioImager A1 microscope (CarlZeiss, Oberkochen, Germany). A total of ten random fields (near 350 cells in each) for each experimental group were scored for neurite outgrowth. The number of neurite-bearing cells and lengths of the individual neurites for each cell were measured using the AxioVision 4.7.1 software (CarlZeiss, Oberkochen, Germany). Length was defined as the straight-line distance from the tip of the neurite to the junction between the cell body and neurite base. In the case of branched neurites, the length of the longest branch was measured from the tip of the neurite to the cell body. In each experimental group, the average length of neurites was calculated, as well as the average number of neurites per one cell.

[7] = Cytotoxicity toward Neuro-2a cells (MTT assay); assay type: cell-based, mouse; settings: mouse, Neuro-2a neuroblastoma cells, 24 h; for activity at 24 h, 10 µM: Neuro-2a cell viability, read-out: Cytotoxicity (MTT Assay) % of Control at 10 μM; for IC50 at 24 h: Neuro-2a cells
Procedure: (§1) The cells of mouse neuroblastoma cell line Neuro-2a (ATCC® CCL-131™; American Type Culture Collection, Manassas, VA, USA) were cultured in Dulbecco’s modified Eagle’s medium (DMEM) containing 10% fetal bovine serum (Biolot, St. Petersburg, Russia) and 1% penicillin/streptomycin (Biolot, St. Petersburg, Russia) at 37 °C in a humidified atmosphere with 5% (v/v) CO2. Initially, cells were incubated in cultural flasks until sub-confluent (~80%). For testing, Neuro-2a cells were seeded in 96- or 6-well plates and experiments were started after 24 h.
(§2) The cells (1 × 10^4 cells/well of a 96-well plate) were incubated with different concentrations of studied compounds during 24 h. After that, cell viability was determined by the MTT (3-(4,5-dimethylthiazol-2-yl)-2,5-diphenyltetrazolium bromide) method according to the manufacturer’s instructions (Sigma-Aldrich, St. Louis, MO, USA). Absorbance of the converted formazan was measured using a Multiskan FC microplate photometer (Thermo Scientific, Waltham, MA, USA) at λ = 570 nm. The results were presented as percent of control data, and concentration of cell viability inhibition on 50% (IC50) was calculated.

[8] = tested on: PQ-treated Neuro-2a cells; assay: PQ-treated Neuro-2a cell viability (MTT assay); assay type: cell-based, mouse; settings: 24 h; for effect on PQ-treated cell viability (MTT assay): compound 1 and 10 µM, PQ 500 µM
Procedure: as §2
(§3) The cells (1 × 10^4 cells/well of a 96-well plate) were treated with studied compounds at concentrations of 1 and 10 µM for 1 h and then 500 µM of PQ (Sigma-Aldrich, St. Louis, MO, USA) was added to the neuroblastoma cells. Cells incubated without PQ and compounds and with PQ alone were used as positive and negative controls, respectively. The viability of cells was measured after 24 h using MTT and FDA methods. The results were presented as percent of positive control data.

[9] = tested on: PQ-treated Neuro-2a cells; assay: PQ-treated Neuro-2a cell viability (FDA assay); assay type: cell-based, mouse; settings: 24 h
Procedure: A stock solution of the fluorescein diacetate (FDA) (Sigma-Aldrich, St. Louis, MO, USA) in DMSO (1 mg/mL) was prepared. The cells (1 × 10^4 cells/well) were seeded in black 96-well plates before testing. After incubation of the cells with compounds and PQ during 24 h, FDA solution (50 μg/mL) was added to each well and the plate was incubated in the dark at 37 °C for 15 min. Cells were washed with phosphate buffer saline (PBS) (BioloT, S.-Peterburg, Russia) and fluorescence was measured with a Fluoroskan Ascent plate reader (Thermo Labsystems, Helsinki, Finland) at λex = 485 nm and λem = 518 nm. All manipulations with fluorescent probes were carried out in a darkened room. Cell viability was expressed as the percent of control.
as §3

[10] = tested on: Neuro-2a cells; assay: Cytotoxicity toward Neuro-2a cells (MTT assay); assay type: cell-based, mouse; settings: Neuro-2a cells, 100 μM, MTT assay
Procedure: as §1, §2

[11] = compound 10 µM 1 h, then PQ 500 µM 24 h
[12] = PQ-treated cells (PQ alone 500 µM)

Compound	EC50 [1]	decrease of fluorescence of PI-straining cells [3]	increase of Hsp70 level in PQ-treated cells [4]	increase in the average number of neurites per cell [6, 11]	activity at 24 h, 10 µM [7]	IC50 at 24 h [7]	effect on PQ-treated cell viability (MTT assay) [8]	concentrations at which ROS content in PQ-treated cells was reduced ([5]; PQ 500 µM 1 h)	also measured
O=C1O[C@H]([C@@H](O)CO)C(O)=C1O [Ascorbic acid, reference compound]	20.5 ± 1.5 µM								
CC(=O)O[C@H]1CC[C@@]2(C)[C@@H](C[C@@H]3O[C@]34[C@]23CC[C@]2(C)[C@@H]([C@H](C)CCC=C(C)C)CC[C@@]42C(=O)O3)C1(C)C [Compound 1, 3β-acetoxy-7β,8β-epoxy-5α-lanost-24-en-30,9α-olide]	> 100 µM	16%	62%	16%	92.1 ± 7.1%	85.7 ± 2.4 µM			increase of intensity of TMRM fluorescence (PQ-induced mitochondrial dysfunction diminished) ([2]; compound 10 μM, PQ 500 µM 1 h): 37%; effect on ROS level in PQ-treated cells ([5]; compound 1 and 10 µM, 1 h pre-treatment, PQ 500 µM 1 h): did not affect ROS level; effect on the number of neurite-bearing PQ-treated cells ([6]; compound 10 µM, PQ 500 µM): did not show a statistical effect
CC(C)=CCC[C@@H](C)[C@H]1CC[C@]23C(=O)O[C@]4(CC[C@]12C)[C@]31O[C@H]1C[C@H]1C(C)(C)[C@@H](O)CC[C@@]14C [Compound 2, 3β-hydroxy-7β,8β-epoxy-5α-lanost-24-en-30,9α-olide]	> 100 µM	12%	43%	12%	96.9 ± 1.1%	> 100 µM	did not show any effect	reduced ROS content only at a concentration of 10 μM	
CC(C)=CCC[C@@H](C)[C@H]1CC[C@@]2(C(=O)O)C3=C(CC[C@]12C)[C@@]1(C)CCC(=O)[C@@H](C)[C@@H]1CC3 [Compound 3, 29-nor-penasterone]	> 100 µM		26%	17%	91.1 ± 4.1%	> 100 µM	did not show any effect	reduced ROS content only at a concentration of 10 μM	effect on PQ-treated cell viability (FDA assay) ([9]; compound 1 and 10 µM, PQ 500 µM): did not show any effect; increase of neurites-bearing cell amount compared to PQ-treated control [6, 11]: 113%; death of cells [10]: 37.4%
N,N-dimethyl-4,4-bipyridinium dichloride [PQ, reference compound]									PQ-treated cell viability, % of control cells (FDA assay) ([9]; PQ alone 500 µM): 62.2%; decrease of TMRM fluorescence ([2]; PQ alone, 1 h exposition): 30%; increase in the number of PI-straining cells ([3]; PQ alone, versus control): 35%; PQ-treated cell viability, % of control cells (MTT assay) ([8]; PQ alone 500 µM): 45.4%; change of Hsp70 level in comparison with control cells ([4]; PQ alone 500 µM, 24 h): half-decrease; increase of ROS level compared to control cells ([5]; PQ alone 500 µM, within 1 h): 40%; average length of neurites, less than control value by ([6]; PQ alone 500 µM, 24 h): 29%; number of neurites per cell, less than control value by ([6]; PQ alone 500 µM, 24 h): 14%; cells with neurites ([6]; PQ alone 500 µM, 24 h, control 30%): 10%; proportion of neurites with a length of 0–4.99 µm in the total number [6, 12]: 11.1%; proportion of neurites with a length of 10.00–14.99 µm in the total number [6, 12]: 16.6%
